Assay results published in article PMC13503280, “A pharmacological modality to sequester homomeric proteins” (Nature Chemical Biology, 2026).

What was measured:
Keap1 and BCL6 = Keap1 and BCL6 (Homo sapiens, UniProt P41182+Q14145); assay: WB of Keap1 and BCL6 in Mino cells (hetero-PINCH); type: cell-based; parameters: Mino cells that express high levels of BCL6; endogenous in cells; host or cells: Mino; OCI-AML2; details: 20 h
Protocol: (§1) Cells were incubated with DMSO at 0.1% or with compound in concentrations ranging 10–20,000 nM for 20 h unless indicated differently. Following incubation, lysis was performed in RIPA buffer and the samples were measured for total protein quantification by BCA assay (Thermo Fisher Scientific, 23225). Then, 20–40 μg of each sample was loaded and run on an SDS–PAGE gel, before transferring onto a nitrocellulose membrane using a Trans-Blot Turbo system (Bio-Rad) and blocking using a 5% BSA in TBS-T (w/v) solution for 1 h at room temperature. Incubation with primary antibodies (mouse anti-BCL-6 (sc-7388, Santa Cruz, 1:500; overnight at 4 °C), mouse anti-Keap1 (sc-365626, Santa Cruz, 1:500; overnight at 4 °C), rabbit anti-LDHA (4H18L6, Thermo Fisher, 1:1,000; overnight at 4 °C), mouse anti-NQO2 (sc-271665, Santa Cruz, 1:500; overnight at 4 °C), rabbit anti-c-Myc (5605, Cell Signaling, 1:1,000; overnight at 4 °C) and mouse anti-β-actin (3700, Cell Signaling, 1:1,000; 1 h at room temperature) was performed and then the membranes were washed and incubated with a horseradish-peroxidase-conjugated secondary antibody (mouse 7076/rabbit 7074, Cell Signaling) at room temperature for 1 h. Imaging of the chemiluminescence signal was performed using a ChemiDoc XRS+ instrument (Bio-Rad). Primary band quantifications were normalized against β-actin bands.

recombinant NQO2 = target: T1, recombinant NQO2 (Homo sapiens, UniProt P16083); assay: DLS of recombinant NQO2; type: biochemical; details: recombinant NQO2, room temperature, over time
T1 construct: made in house; host or cells: E. coli BL21(DE3)
T1 sequence (P16083 1-231): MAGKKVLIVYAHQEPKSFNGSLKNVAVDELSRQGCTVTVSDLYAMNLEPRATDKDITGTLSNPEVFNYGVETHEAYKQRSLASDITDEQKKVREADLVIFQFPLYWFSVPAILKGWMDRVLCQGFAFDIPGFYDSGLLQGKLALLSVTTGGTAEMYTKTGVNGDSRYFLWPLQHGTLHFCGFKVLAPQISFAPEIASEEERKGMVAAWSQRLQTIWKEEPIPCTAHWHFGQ
Protocol: (§2) DLS samples were prepared in the respective protein’s elution buffer, to which 0.01% Tween was added, along with the compound from a DMSO stock to obtain a final DMSO concentration of 2%. Samples were prepared at room temperature and measured at a constant temperature of 25 °C. All samples were passed through 0.1-μm filters and then placed in a clear-bottom black 384-well plate. DLS data were recorded using a DynaproPlate Reader III (Wyatt Technology). Data were processed with the supplied DYNAMICS software.

Keap1 = Keap1 (Homo sapiens, UniProt Q14145); assay: WB of Keap1 in OCI-AML2 cells (soluble/insoluble phase); type: cell-based; parameters: endogenous in cells; host or cells: OCI-AML2; details: OCI-AML2 cells, 20 h treatment; for EC50: read-out: EC50 (Keap1 downregulation, WB)
Protocol: as §1

recombinant Keap1 BTB = target: T2, recombinant Keap1 BTB (Homo sapiens, UniProt Q14145, S172A); assay: DLS of recombinant Keap1 BTB domain; type: biochemical; details: 50 μM Keap1 BTB, 50 μM compound, room temperature, over time
T2 construct: The Keap1 BTB domain (48–180) encoding the single substitution S172A was cloned into pET28-bdSumo vector; His–bdSumo (N, cleaved yes); made in house; host or cells: E. coli BL21(DE3)
Protocol: as §2

Mino cells = assay: Viability measurements, Mino cells; type: cell-based; details: Mino cells, 72 h
Protocol: (§3) Cells were seeded in a transparent-bottom, black 96-well plate, at 15,000 cells per well in sixfold replications. in 90 µl of medium and left to adhere for at least 4 h. The cells were then treated with the respective compound by adding 10 µl of medium–-compound mixture for a final volume of 100 µl in each well. Cell-Titer blue reagent was used to measure viability according to the manufacturer’s instructions. Plate reader measurements were performed on a Tecan Spark Control 10 M fluorescence system.

HEK 293 cells = assay: Viability measurements, HEK 293 cells; type: cell-based; details: HEK 293 cells (lack BCL6 expression), 72 h
Protocol: as §3

Ramos cells = assay: Viability measurements, Ramos cells; type: cell-based; details: Ramos cells, 72 h
Protocol: as §3

c-Myc = assay: WB of c-Myc protein levels in Mino cells; type: cell-based; details: 20 h
Protocol: as §1

BCL6 = target: T3, BCL6 (Homo sapiens, UniProt P41182); assay: WB of BCL6 levels in Mino cells (soluble/insoluble fraction); type: cell-based; details: 20 h incubation
T3 construct: in Mino cells, as BCL6 is mostly expressed in B cells; endogenous in cells; host or cells: Mino (ATCC CRL-3000)
Protocol: Cells were incubated with DMSO at 0.1% or with compound in concentrations ranging 10–20,000 nM for 20 h unless indicated differently. […] Then, 20–40 μg of each sample was loaded and run on an SDS–PAGE gel, before transferring onto a nitrocellulose membrane using a Trans-Blot Turbo system (Bio-Rad) and blocking using a 5% BSA in TBS-T (w/v) solution for 1 h at room temperature. […] Imaging of the chemiluminescence signal was performed using a ChemiDoc XRS+ instrument (Bio-Rad). Primary band quantifications were normalized against β-actin bands.

OCI-AML2 cells = assay: Viability measurements, OCI-AML2 cells; type: cell-based; details: OCI-AML2, 72 h
Protocol: as §3

NQO1 expression = assay: qPCR for NQO1 expression in OCI-AML2 cells after washout; type: cell-based; details: OCI-AML2, 250 nM 20 h, from 48 h after treatment
Protocol: Cells were treated with either DMSO or compound at 250 nM, followed by washing out the treated medium after 20 h and reseeding in fresh medium. Cells were then collected at several time points post washout. Total RNA was extracted using RNeasy mini kit (Qiagen, 74104). […] PCR amplification was carried out in Step-One Plus thermocycler (Applied Biosystems). Relative quantification was performed using standard curves. GAPDH was used for normalization.

U2OS cells = assay: Viability measurements, U2OS cells; type: cell-based; details: 72 h
Protocol: as §3

Nrf2 = assay: WB of Nrf2; type: cell-based; details: U2OS cells, 20 h compound treatment

Chain of Keap1 (Q14145 whole entry): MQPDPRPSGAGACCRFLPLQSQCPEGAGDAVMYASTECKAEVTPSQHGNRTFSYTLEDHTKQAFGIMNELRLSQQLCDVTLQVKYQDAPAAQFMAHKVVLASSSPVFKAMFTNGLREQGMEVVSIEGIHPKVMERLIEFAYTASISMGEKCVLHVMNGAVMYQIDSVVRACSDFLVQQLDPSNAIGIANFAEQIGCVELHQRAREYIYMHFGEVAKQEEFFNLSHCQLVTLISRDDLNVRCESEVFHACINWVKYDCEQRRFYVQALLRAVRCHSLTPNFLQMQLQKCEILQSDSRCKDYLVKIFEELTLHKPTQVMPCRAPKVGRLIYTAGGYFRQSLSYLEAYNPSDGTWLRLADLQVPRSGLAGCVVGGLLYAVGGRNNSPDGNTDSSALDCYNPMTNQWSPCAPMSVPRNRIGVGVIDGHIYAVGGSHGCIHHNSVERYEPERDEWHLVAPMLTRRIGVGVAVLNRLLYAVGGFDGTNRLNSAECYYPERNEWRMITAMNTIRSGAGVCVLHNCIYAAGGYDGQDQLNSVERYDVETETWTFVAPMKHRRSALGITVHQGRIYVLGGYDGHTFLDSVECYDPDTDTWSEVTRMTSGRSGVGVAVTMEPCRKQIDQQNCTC
T2 sequence (Q14145 48-180 S172A): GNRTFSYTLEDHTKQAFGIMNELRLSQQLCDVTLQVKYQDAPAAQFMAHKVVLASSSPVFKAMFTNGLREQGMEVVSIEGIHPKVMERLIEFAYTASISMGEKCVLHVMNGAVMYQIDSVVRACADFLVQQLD

Compound: COc1cc(Nc2cc(NCc3cccc(S(=O)(=O)F)c3)ccc2Cl)cc2cc(OCC(=O)NCCOCCOCCOCCOCCOCCOCCOCCOCCOCCOCCOCCOCCOCCN)c(=O)n(C)c12 [compound 23]
- Keap1 and BCL6 levels in soluble/insoluble phase (WB) (Keap1 and BCL6): did not induce such effects on either target

Compound: Cc1ccc(-c2cn3cccc(C)c3n2)cc1S(=O)(=O)N1CCN(C(=O)CCOCCOCCOCCOCCOCCOCCOCCOCCOCCOCCC(=O)N2CCN(S(=O)(=O)c3cc(-c4cn5cccc(C)c5n4)ccc3C)CC2)CC1 [EL241]
- formation of larger species (DLS) (recombinant NQO2): little to no effect in polymerizing NQO2

Compound: CC1(C)CCC2(C(=O)NCCOCCOCCOCCNC(=O)C34CCC(C)(C)CC3C3C(=O)C=C5C6(C)C=C(C#N)C(=O)C(C)(C)C6CCC5(C)C3(C)CC4)CCC3(C)C(C(=O)C=C4C5(C)C=C(C#N)C(=O)C(C)(C)C5CCC43C)C2C1 (stereo not shown) [EL151]
- Keap1 in soluble and insoluble fraction (WB activity) (Keap1): no activity

Compound: CC1(C)CCC2(C(=O)NCCCCCCNC(=O)C34CCC(C)(C)CC3C3C(=O)C=C5C6(C)C=C(C#N)C(=O)C(C)(C)C6CCC5(C)C3(C)CC4)CCC3(C)C(C(=O)C=C4C5(C)C=C(C#N)C(=O)C(C)(C)C5CCC43C)C2C1 (stereo not shown) [EL132]
- formation of large species (DLS) (recombinant Keap1 BTB): formation of large species over time
- EC50 (Keap1): 1020 nM

Compound: Cc1ccc(-c2cn3cccc(C)c3n2)cc1S(=O)(=O)N1CCN(C(=O)COCCOCCOCC(=O)N2CCN(S(=O)(=O)c3cc(-c4cn5cccc(C)c5n4)ccc3C)CC2)CC1 [EL246]
- formation of larger species (DLS) (recombinant NQO2): ability to form larger species in solution

Compound: Cc1ccc(-c2cn3cccc(C)c3n2)cc1S(=O)(=O)N1CCN(C(=O)COCCOCC(=O)N2CCN(S(=O)(=O)c3cc(-c4cn5cccc(C)c5n4)ccc3C)CC2)CC1 [EL245]
- formation of larger species (DLS) (recombinant NQO2): ability to form larger species in solution

Compound: Cc1ccc(-c2cn3cccc(C)c3n2)cc1S(=O)(=O)N1CCN(C(=O)COCC(=O)N2CCN(S(=O)(=O)c3cc(-c4cn5cccc(C)c5n4)ccc3C)CC2)CC1 [EL244]
- formation of larger species (DLS) (recombinant NQO2): ability to form larger species in solution

Compound: CC1(C)CCC2(C(=O)NCCN3CCN(CCNC(=O)C45CCC(C)(C)CC4C4C(=O)C=C6C7(C)C=C(C#N)C(=O)C(C)(C)C7CCC6(C)C4(C)CC5)CC3)CCC3(C)C(C(=O)C=C4C5(C)C=C(C#N)C(=O)C(C)(C)C5CCC43C)C2C1 (stereo not shown) [EL165]
- formation of large species (DLS) (recombinant Keap1 BTB): formation of large species over time
- EC50 (Keap1): 342 nM

Compound: CC1(C)CCC2(C(=O)NCCOCCOCCOCCOCCOCCOCCOCCOCCOCCOCCOCCOCCOCCNC(=O)C34CCC(C)(C)CC3C3C(=O)C=C5C6(C)C=C(C#N)C(=O)C(C)(C)C6CCC5(C)C3(C)CC4)CCC3(C)C(C(=O)C=C4C5(C)C=C(C#N)C(=O)C(C)(C)C5CCC43C)C2C1 (stereo not shown) [EL229]
- Keap1 in soluble and insoluble fraction (WB activity) (Keap1): reduced Keap1 in the cell’s soluble fraction and induced its accumulation in the insoluble fraction

Compound: CC1(C)CCC2(C(=O)NCCCCCCCCNC(=O)C34CCC(C)(C)CC3C3C(=O)C=C5C6(C)C=C(C#N)C(=O)C(C)(C)C6CCC5(C)C3(C)CC4)CCC3(C)C(C(=O)C=C4C5(C)C=C(C#N)C(=O)C(C)(C)C5CCC43C)C2C1 (stereo not shown) [EL163]
- Keap1 in soluble and insoluble fraction (WB activity) (Keap1): no activity

Compound: CC1(C)CCC2(C(=O)NCC(=O)N3CCN(C(=O)CNC(=O)C45CCC(C)(C)CC4C4C(=O)C=C6C7(C)C=C(C#N)C(=O)C(C)(C)C7CCC6(C)C4(C)CC5)CC3)CCC3(C)C(C(=O)C=C4C5(C)C=C(C#N)C(=O)C(C)(C)C5CCC43C)C2C1 (stereo not shown) [EL174]
- Keap1 in soluble and insoluble fraction (WB activity) (Keap1): no activity

Compound: CC1(C)CCC2(C(=O)NCCOCCOCCOCCOCCOCCOCCNC(=O)C34CCC(C)(C)CC3C3C(=O)C=C5C6(C)C=C(C#N)C(=O)C(C)(C)C6CCC5(C)C3(C)CC4)CCC3(C)C(C(=O)C=C4C5(C)C=C(C#N)C(=O)C(C)(C)C5CCC43C)C2C1 (stereo not shown) [EL152]
- EC50 (Keap1): 904 nM

Compound: CC1(C)CC[C@]2(C(=O)NCCOCCOCCOCCOCCOCCOCCOCCOCCOCCOCCOCCOCCOCCN)CC[C@]3(C)[C@H](C(=O)C=C4[C@@]5(C)C=C(C#N)C(=O)C(C)(C)[C@@H]5CC[C@]43C)[C@@H]2C1 [compound 24]
- Keap1 and BCL6 levels in soluble/insoluble phase (WB) (Keap1 and BCL6): did not induce such effects on either target

Compound: CC1(C)CCC2(C(=O)NCCOCCNC(=O)C34CCC(C)(C)CC3C3C(=O)C=C5C6(C)C=C(C#N)C(=O)C(C)(C)C6CCC5(C)C3(C)CC4)CCC3(C)C(C(=O)C=C4C5(C)C=C(C#N)C(=O)C(C)(C)C5CCC43C)C2C1 (stereo not shown) [EL147]
- Keap1 in soluble and insoluble fraction (WB activity) (Keap1): no activity

Compound: CNC(=O)COc1cc2cc(Nc3nc(N4C[C@H](C)C[C@H](C)C4)ncc3Cl)ccc2n(C)c1=O [BI-3802, reference compound]
- effect on viability (Mino cells): no viability effect
- effect on viability (HEK 293 cells): no compound affected the viability
- effect on viability (Ramos cells): no viability effect
- c-Myc protein levels (WB) (c-Myc): no such effect on c-Myc
- BCL6 in soluble and insoluble fraction (WB) (BCL6): no accumulation in the insoluble fraction

Compound: Bardoxolone [BDX, reference compound]
- IC50 (OCI-AML2 cells): 1000 nM
- duration of NQO1 upregulation after washout (NQO1 expression): returned closer to its original level
- IC50 (U2OS cells): 723 nM
- Nrf2 levels (WB) (Nrf2): Nrf2 upregulation
- formation of large species (DLS) (recombinant Keap1 BTB): did not appear

Compound: CC1(C)CCC2(C(=O)NCCSCCSCCNC(=O)C34CCC(C)(C)CC3C3C(=O)C=C5C6(C)C=C(C#N)C(=O)C(C)(C)C6CCC5(C)C3(C)CC4)CCC3(C)C(C(=O)C=C4C5(C)C=C(C#N)C(=O)C(C)(C)C5CCC43C)C2C1 (stereo not shown) [EL164]
- EC50 (Keap1): 434 nM

Compound: CC1(C)CCC2(C(=O)NCC3CCC(CNC(=O)C45CCC(C)(C)CC4C4C(=O)C=C6C7(C)C=C(C#N)C(=O)C(C)(C)C7CCC6(C)C4(C)CC5)CC3)CCC3(C)C(C(=O)C=C4C5(C)C=C(C#N)C(=O)C(C)(C)C5CCC43C)C2C1 (stereo not shown) [EL159]
- Keap1 in soluble and insoluble fraction (WB activity) (Keap1): no activity
